Assay results as given in US20230331715A1, “SPIRO[3.3]HEPTANE DERIVATIVES FOR THE TREATMENT AND PROPHYLAXIS OF HEPATITIS B VIRUS INFECTION” (priority 2020, published 2023).

Experiments:
Assay type in all cases: cell-based
HBsAg = test: PHH HBV natural infection assay, HBsAg (alphalisa); conditions: Hepatitis B virus, 72 h, read-out: HBsAg IC50, HBV-infected PHH, culture supernatant, compound refreshed two times with 72-hour interval, alphalisa
Description: (§1) Detailed procedures regarding primary human hepatocyte (PHH) HBV natural infection assay are described as below. One tube of frozen PHH (10 million cells) is thawed in 37° C. water bath and then transferred to 20 mL of PHH thawing medium (Sigma, InVitroGRO HT Medium, Cat. S03319) with gently mixing. The cells were then centrifuged at […] for 5 min, the supernatant was discarded and the tube was refilled with 25 mL of PHH plating medium (Sigma, InVitroGRO CP Medium, Cat. S03317). The tube was shaken very gently to re-suspend all cells, and then 50 µl of cells were transferred to each well 384-well collagen I coated plate with appropriate liquid handling equipment, e.g. Integra VIAFLO384 or Agilent Bravo. The cells were then cultured for 24 hours in a cell incubator. For HBV infection, after PHH attachment on the culture plate, the plating medium was removed and replenished with PHH culture medium containing HBV virus. The PHH culture medium was prepared with Dulbecco’s Modified Eagle Medium (DMEM)/F12 (1: 1 in volume ratio) containing 10% fetal bovine serum (Gibco, Cat. 10099141), 5 ng/mL human epidermal growth factor (Gibco, Cat.PHG0311L), 20 ng/mL dexamethasone (Sigma, Cat.D4902-100mg), 250 ng/mL human recombinant insulin (Gibco, Cat.41400045) and 100 U/mL penicillin. HBV virus at 200 genome equivalent (GE) per cell with 4% PEG8000 (Sigma, Cat.P1458) containing culture medium were added to the PHH culture medium for infection. The cells were then cultured for 24 hours in cell incubator. Then the cell culture supernatant was removed. The HBV-infected PHH were cultured with sandwich culture method with PHH culture medium containing 1% DMSO and 0.25 mg/mL matrix gel for 72 hours. The supernatant was then refreshed with PHH culture medium containing different concentrations of testing compounds for two times with 72-hour interval. At the end of treatment, the supernatant was collected for viral markers measurements, including HBsAg, HBeAg, HBV DNA and cytotoxicity. HBsAg and HBeAg were detected using alphalisa method using their specific antibodies. For HBV DNA detection, HBV DNA Quantitative Fluorescence Diagnostic Kit (Sansure Biotech Inc.) was used following the manufacture’s protocol. Cytotoxicity was determined using Cell Counting Kit-8 (CCK8, Dojindo Molecular Technologies, Inc.).
(§2) The compounds of the present invention were tested for their capacity to inhibit HBsAg and HBeAg as described herein.

HBeAg = test: PHH HBV natural infection assay, HBeAg (alphalisa); conditions: Hepatitis B virus, 72 h, read-out: HBeAg IC50, HBV-infected PHH, culture supernatant, compound refreshed two times with 72-hour interval, alphalisa
Description: as §1, §2

[1] = Cytotoxicity in PHH natural infection assay (Cell Counting Kit-8); conditions: human; HBV-infected PHH, CCK8, compound refreshed two times with 72-hour interval
Description: as §1

SMILES	IC50 (HBsAg)	IC50 (HBeAg)	CC50 at 144 h [1]
O=C(NC1CC2(C1)CC(c1nc3ccc(Cl)cc3s1)C2)c1ccc(C(F)(F)F)o1 (stereo not drawn) [Example 15, N-[6-(6-chloro-1,3-benzothiazol-2-yl)spiro[3.3]heptan-2-yl]-5-(trifluoromethyl)furan-2-carboxamide]	2.96 µM	2.07 µM	> 100 µM
CC(c1ccc(C(=O)NC2CC3(C2)CC(c2nc4cc(Cl)ccc4s2)C3)o1)S(C)(=O)=O (stereo not drawn) [Example 16, N-[6-(5-chloro-1,3-benzothiazol-2-yl)spiro[3.3]heptan-2-yl]-5-(1-methylsulfonylethyl)furan-2-carboxamide]	2.69 µM	1.92 µM	23.9 µM
CC(C)(c1ccc(C(=O)NC2CC3(C2)CC(c2nc4cc(Cl)ccc4s2)C3)o1)S(C)(=O)=O (stereo not drawn) [Example 17, N-[6-(5-chloro-1,3-benzothiazol-2-yl)spiro[3.3]heptan-2-yl]-5-(1-methyl-1-methylsulfonyl-ethyl)furan-2-carboxamide]	2.11 µM	1.6 µM	35.7 µM
O=C(NC1CC2(C1)CC(c1nc3cc(Cl)ccc3s1)C2)c1ccc(C(O)C(F)(F)F)o1 (stereo not drawn) [Example 18, N-[6-(5-chloro-1,3-benzothiazol-2-yl)spiro[3.3]heptan-2-yl]-5-(2,2,2-trifluoro-1-hydroxyethyl)furan-2-carboxamide]	5.52 µM	4.59 µM	> 10 µM
Nc1nc(C(=O)NC2CC3(C2)CC(c2nc4cc(Cl)ccc4s2)C3)cs1 (stereo not drawn) [Example 19, 2-amino-N-[6-(5-chloro-1,3-benzothiazol-2-yl)spiro[3.3]heptan-2-yl]thiazole-4-carboxamide]	7.55 µM	6.83 µM	31.5 µM
O=C(NC1CC2(C1)CC(c1nc3cc(Cl)ccc3s1)C2)c1ccc(S(=O)(=O)N2CCC2)o1 (stereo not drawn) [Example 20, 5-(azetidin-1-ylsulfonyl)-N-[6-(5-chloro-1,3-benzothiazol-2-yl)spiro[3.3]heptan-2-yl]furan-2-carboxamide]	4.88 µM	4.06 µM	> 10 µM
O=C(NC1CC2(C1)CC(c1nc3cc(Cl)ccc3s1)C2)c1ccc(S(=O)(=O)N2CC(F)(F)C2)o1 (stereo not drawn) [Example 21, N-[6-(5-chloro-1,3-benzothiazol-2-yl)spiro[3.3]heptan-2-yl]-5-(3,3-difluoroazetidin-1-yl)sulfonyl-furan-2-carboxamide]	1.49 µM	1.14 µM	> 10 µM
O=C(NC1CC2(C1)CC(c1nc3cc(Cl)ccc3s1)C2)c1ccc(S(=O)(=O)NC2CCC2)o1 (stereo not drawn) [Example 22, N-[6-(5-chloro-1,3-benzothiazol-2-yl)spiro[3.3]heptan-2-yl]-5-(cyclobutylsulfamoyl)furan-2-carboxamide]	1.39 µM	1 µM	21.9 µM
O=C(NC1CC2(C1)CC(c1nc3cc(Cl)ccc3s1)C2)c1ccc(S(=O)(=O)NC2CC(F)(F)C2)o1 (stereo not drawn) [Example 23, N-[6-(5-chloro-1,3-benzothiazol-2-yl)spiro[3.3]heptan-2-yl]-5-[(3,3-difluorocyclobutyl)sulfamoyl]furan-2-carboxamide]	1.25 µM	0.85 µM	14.3 µM
O=C(NC1CC2(C1)CC(c1nc3cc(Cl)ccc3s1)C2)c1ccc(S(=O)(=O)NC2CC(C(F)(F)F)C2)o1 (stereo not drawn) [Example 24, N-[6-(5-chloro-1,3-benzothiazol-2-yl)spiro[3.3]heptan-2-yl]-5-[[3-(trifluoromethyl)cyclobutyl]sulfamoyl]furan-2-carboxamide]	1.4 µM	1.04 µM	19.7 µM
O=C(NC1CC2(C1)CC(c1nc3cc(Cl)ccc3s1)C2)C1CS(=O)(=O)C1 (stereo not drawn) [Example 25, N-[6-(5-chloro-1,3-benzothiazol-2-yl)spiro[3.3]heptan-2-yl]-1,1-dioxo-thietane-3-carboxamide]	2.59 µM	2.07 µM	> 10 µM
O=C(NC1CC2(C1)CC(c1nc3cc(Cl)ccc3s1)C2)C1CCS(=O)(=O)C1 (stereo not drawn) [Example 26, N-[6-(5-chloro-1,3-benzothiazol-2-yl)spiro[3.3]heptan-2-yl]-1,1-dioxo-thiolane-3-carboxamide]	1.99 µM	1.18 µM	> 100 µM
O=C(NC1CC2(C1)CC(c1nc3ccc(Cl)cc3s1)C2)C1CCS(=O)(=O)C1 (stereo not drawn) [Example 27, N-[6-(6-chloro-1,3-benzothiazol-2-yl)spiro[3.3]heptan-2-yl]-1,1-dioxo-thiolane-3-carboxamide]	1.15 µM	0.56 µM	> 100 µM
O=C(CC1CS(=O)(=O)C1)NC1CC2(C1)CC(c1nc3cc(Cl)ccc3s1)C2 (stereo not drawn) [Example 28, N-[6-(5-chloro-1,3-benzothiazol-2-yl)spiro[3.3]heptan-2-yl]-2-(1,1-dioxothietan-3-yl)acetamide]	3.28 µM	1.66 µM	> 10 µM
O=C(CC1CCCS1(=O)=O)NC1CC2(C1)CC(c1nc3cc(Cl)ccc3s1)C2 (stereo not drawn) [Example 29, N-[6-(5-chloro-1,3-benzothiazol-2-yl)spiro[3.3]heptan-2-yl]-2-(1,1-dioxothiolan-2-yl)acetamide]	4.74 µM	3.59 µM	> 10 µM
O=C(CC1CCCS(=O)(=O)C1)NC1CC2(C1)CC(c1nc3cc(Cl)ccc3s1)C2 (stereo not drawn) [Example 30, N-[6-(5-chloro-1,3-benzothiazol-2-yl)spiro[3.3]heptan-2-yl]-2-(1,1-dioxothian-3-yl)acetamide]	3.47 µM	3.47 µM	> 10 µM
CCN1CC(C(=O)NC2CC3(C2)CC(c2nc4cc(Cl)ccc4s2)C3)CC1=O (stereo not drawn) [Example 31, N-[6-(5-chloro-1,3-benzothiazol-2-yl)spiro[3.3]heptan-2-yl]-1-ethyl-5-oxo-pyrrolidine-3-carboxamide]	9.58 µM	8.29 µM	> 10 µM
CN1CCC(C(=O)NC2CC3(C2)CC(c2nc4cc(Cl)ccc4s2)C3)CC1=O (stereo not drawn) [Example 32, N-[6-(5-chloro-1,3-benzothiazol-2-yl)spiro[3.3]heptan-2-yl]-1-methyl-2-oxo-piperidine-4-carboxamide]	6.11 µM	4.13 µM	> 10 µM
O=C1CCC(CC(=O)NC2CC3(C2)CC(c2nc4cc(Cl)ccc4s2)C3)N1 (stereo not drawn) [Example 33, N-[6-(5-chloro-1,3-benzothiazol-2-yl)spiro[3.3]heptan-2-yl]-2-(5-oxopyrrolidin-2-yl)acetamide]	4.08 µM	4.12 µM	> 10 µM
O=C(NC1CC2(C1)CC(c1nc3cc(Cl)ccc3s1)C2)C1CCS(=O)(=O)N1 (stereo not drawn) [Example 34, N-[6-(5-chloro-1,3-benzothiazol-2-yl)spiro[3.3]heptan-2-yl]-1,1-dioxo-1,2-thiazolidine-3-carboxamide]	7.11 µM	5.67 µM	> 10 µM
O=C(CN1CCCCS1(=O)=O)NC1CC2(C1)CC(c1nc3cc(Cl)ccc3s1)C2 (stereo not drawn) [Example 35, N-[6-(5-chloro-1,3-benzothiazol-2-yl)spiro[3.3]heptan-2-yl]-2-(1,1-dioxothiazinan-2-yl)acetamide]	3.18 µM	2.98 µM	> 10 µM
CS(=O)(=O)c1cc(C(=O)NC2CC3(C2)CC(c2nc4cc(Cl)ccc4s2)C3)ccn1 (stereo not drawn) [Example 36, N-[6-(5-chloro-1,3-benzothiazol-2-yl)spiro[3.3]heptan-2-yl]-2-methylsulfonyl-pyridine-4-carboxamide]	1.08 µM	0.86 µM	> 50 µM
O=C(NC1CC2(C1)CC(c1nc3ccc(Cl)cc3s1)C2)c1ccnc(S(=O)(=O)C2CC2)c1 (stereo not drawn) [Example 37, N-[6-(6-chloro-1,3-benzothiazol-2-yl)spiro[3.3]heptan-2-yl]-2-cyclopropylsulfonyl-pyridine-4-carboxamide]	0.23 µM	0.2 µM	10.1 µM
CC(C)(C)S(=O)(=O)c1cc(C(=O)NC2CC3(C2)CC(c2nc4cc(Cl)ccc4s2)C3)ccn1 (stereo not drawn) [Example 38, 2-tert-butylsulfonyl-N-[6-(5-chloro-1,3-benzothiazol-2-yl)spiro[3.3]heptan-2-yl]pyridine-4-carboxamide]	1.95 µM	1.49 µM	30.8 µM
